Assay results: US20060287360A1, “Novel compounds” (REPLIDYNE, INC., priority 2003, published 2006)

Tests used:
H. influenzae = assay: Antibacterial activity, standard MIC assay modified by inclusion of cyclodextrin; format: cell-based
Procedure: (§1) Compounds of the present invention were assayed for antibacterial activity against a range of pathogenic organisms (strains of S aureus, Spneumoniae, Efaecalis, H influenzae and M catarrhalis) in a standard MIC assay modified by the inclusion of cyclodextrin, to assist with solubility.

S. aureus MRS = biological target: T1, S. aureus MRS (Staphylococcus aureus, UniProt Q5HII6); assay: Enzyme inhibition (S. aureus MRS), aminoacylation assay; format: biochemical
T1 construct: made in house
T1 sequence (Q5HII6 whole entry): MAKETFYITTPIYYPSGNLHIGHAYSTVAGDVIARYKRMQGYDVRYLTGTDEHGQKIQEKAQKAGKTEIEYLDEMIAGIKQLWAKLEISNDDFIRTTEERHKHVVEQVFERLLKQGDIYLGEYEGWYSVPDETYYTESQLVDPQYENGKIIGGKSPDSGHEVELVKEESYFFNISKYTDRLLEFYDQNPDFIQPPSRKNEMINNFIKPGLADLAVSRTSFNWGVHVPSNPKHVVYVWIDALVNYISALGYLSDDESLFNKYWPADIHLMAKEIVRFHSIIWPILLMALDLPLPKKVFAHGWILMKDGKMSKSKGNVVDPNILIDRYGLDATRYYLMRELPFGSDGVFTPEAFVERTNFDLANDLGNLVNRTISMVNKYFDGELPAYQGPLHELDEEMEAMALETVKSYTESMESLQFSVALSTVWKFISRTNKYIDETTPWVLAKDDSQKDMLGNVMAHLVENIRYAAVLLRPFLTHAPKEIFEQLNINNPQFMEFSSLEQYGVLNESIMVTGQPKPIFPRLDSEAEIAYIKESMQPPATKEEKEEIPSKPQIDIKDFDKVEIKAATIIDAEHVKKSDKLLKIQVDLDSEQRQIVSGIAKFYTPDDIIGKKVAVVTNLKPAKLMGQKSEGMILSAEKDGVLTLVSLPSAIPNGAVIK
Procedure: 1. Enzyme Inhibition (S. aureus MRS)—Aminoacylation Assay
Compounds of the present invention may be assayed for their ability to inhibit the enzyme methionyl tRNA synthetase (MRS), using recombinant S. aureus MRS, as follows:
The reaction is started by adding 20 μl appropriately diluted pure enzyme (pre-incubated with inhibitor) to 25 μl reaction mix for 10 min at room temperature. The reaction is terminated by the addition of 100 μl 5% trichloroacetic acid, 10% glycerol. The TCA precipitate is harvested onto dry Unifilter GFC plates using a Packard Filtermate Cell Harvester. The filters are washed with 4×200 μl of 50% industrial methylated spirit, before drying. 30 μl of Microscint 20 is added to each well and plates are counted on a TopCount. (Packard 96 well counter).
Mixed E. coli MRE 600 tRNA and ATP were purchased from Boehringer-Mannheim, L-[^35 S] methionine from Amersham and other reagents from Sigma.
Pure recombinant S. aureus MRS (EP application number 97300317.1, SmithKline Beecham) was obtained using standard purification procedures. The enzyme is diluted in Dilution Buffer which consists of 10 mM Tris/Cl, 2 mM DTT pH 7.9.

M Catarrhalis = assay: Antibacterial activity, standard MIC assay modified by inclusion of cyclodextrin; format: cell-based; conditions: some strains of M Catarrhalis
Procedure: as §1

S. aureus = assay: as above; format: cell-based; conditions: Staphylococcus aureus; some strains of S. aureus
Procedure: as §1

S. pneumoniae = assay: as above; format: cell-based; conditions: Streptococcus pneumoniae; some strains of S. pneumoniae
Procedure: as §1

E. faecalis = assay: as above; format: cell-based; conditions: Enterococcus faecalis; some strains of E. faecalis
Procedure: as §1

| SMILES | antibacterial activity against H. influenzae (H. influenzae) | IC50 (S. aureus MRS) [nM] | MIC (M Catarrhalis) [µg/mL] | MIC (S. aureus) [µg/mL] | MIC (S. pneumoniae) [µg/mL] | MIC (E. faecalis) [µg/mL] |
| --- | --- | --- | --- | --- | --- | --- |
| Cc1c(CNCCCNc2nn3nccc3[nH]2)sc(Br)c1Br.Cl.Cl [Example 2, 2-[3-(4,5-Dibromo-3-methylthien-2-ylmethylamino)propylamino]-1H-pyrazolo[1,5-b][1,2,4]triazole dihydrochloride] | active | < 10 |  |  |  |  |
| COc1cc(CNCCCNc2nn3nccc3[nH]2)c2[nH]cc(Cl)c2c1.Cl.Cl [Example 1, 2-[3-(3-Chloro-5-methoxy-1H-indol-7-ylmethylamino)propylamino]-1H-pyrazolo[1,5-b][1,2,4]triazole dihydrochloride] |  | < 10 | < 32 | < 32 | < 32 | < 32 |
